Measurements published in ChEMBL document CHEMBL1201862, “PubChem BioAssay data set” (2004).
Calls of active or inactive are those of the source.

What was measured:
Trypsin = Trypsin (Sus scrofa, UniProt P00761); experiment: trypsin protease activity blockade – biochemical, quenched peptide fluorescence, cherry-pick, selectivity assay for Rce1 protease inhibitor project, dose response (AID 488789)
CAAX prenyl protease 1 = CAAX prenyl protease 1 (Saccharomyces cerevisiae S288c, UniProt P47154); experiment: yeast CAAX protease Ste24 inhibition – biochemical, S. cerevisiae, plate reader, cherry-pick, dose response (AID 488815)
CAAX prenyl protease 2 = CAAX prenyl protease 2 (Homo sapiens, UniProt Q9Y256); experiment: inhibition of Ras-converting CAAX protease Rce1 – biochemical, yeast membranes, quenched-peptide fluorescence, cherry-pick, dose response (AID 588849)
[1] = target: Serine/threonine-protein phosphatase (Homo sapiens, UniProt Q9BPW0); experiment: inhibition of protein phosphatase 5 activity – biochemical, fluorescence, dose response (AID 2395)
[2] = bead-based luminescence quenchers, dual-tagged ARNT – biochemical, AlphaScreen, cherry-pick, artefact control for ARNT-TACC3 interaction inhibitor project, dose response (AID 651705); format: functional;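 further: AlphaScreen bead proximity signal that flags compounds interfering with the detection technology; potency reflects signal decrease which marks the compound as an assay artifact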
[3] = target: Serine/threonine-protein phosphatase PP1-alpha catalytic subunit (Homo sapiens, UniProt P62136); experiment: inhibition of protein phosphatase 1 activity – biochemical, fluorescence, dose response (AID 2394)
[4] = target: Lysine-specific demethylase 4C (Homo sapiens, UniProt Q9H3R0); experiment: inhibition of JMJD2C H3K9me3 demethylation – biochemical, DELFIA europium, cherry-picked samples, dose response (AID 488835); format: functional
ORF 73 = ORF 73 (Human herpesvirus 8, UniProt O40947); experiment: KSHV LANA DNA-binding disruption – biochemical, fluorescence polarization, cherry-picked samples, dose response (AID 504725); design: species or system Human gammaherpesvirus 8;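 further: fluorescence polarization of a labeled DNA duplex reporting LANA DNA binding; potency is for inhibitors that block LANA binding to the DNA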
Beta-lactamase [5] = target: Beta-lactamase (Salmonella choleraesuis (strain SC-B67), UniProt Q5J463)
Beta-lactamase [6] = target: Beta-lactamase (Pseudomonas aeruginosa, UniProt Q79MP6);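 further: biochemical dose-response test of metallo-beta-lactamase enzyme inhibition, read out by epi-absorbance; purified recombinant IMP-1 metallo-beta-lactamase with nitrocefin as substrate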
Keap1/Nrf2 = Keap1/Nrf2 (Homo sapiens, UniProt Q14145); experiment: disruptors of Keap1 binding to Nrf2 peptide – biochemical, fluorescence polarization, cherry-picked samples, dose response (AID 588683)
[7] = target: UDP-galactopyranose mutase (Mycobacterium tuberculosis, UniProt P9WIQ1); experiment: Inhibitors of Mycobacterium tuberculosis UDP-galactopyranose mutase (UGM) enzyme Measured in Biochemical System Using Plate Reader - 2105-02_Inhibitor_Dose_CherryPick_Activity. [Related pubchem assays (depositor defined):AID504439]
[8] = target: DNA (cytosine-5)-methyltransferase 1 (Homo sapiens, UniProt P26358); experiment: inhibition of DNA methylation by DNMT1 – biochemical, fluorescent molecular beacon, confirmation (AID 602386); format: functional
[9] = target: Transitional endoplasmic reticulum ATPase (Homo sapiens, UniProt P55072, C522A); experiment: C522A mutant p97 ATPase inhibitors, dose response, counter-screen for p97 inhibitor project, biochemical, luminescence (AID 1544)
SUMO-activating enzyme [10] = target: T1, SUMO-activating enzyme (Homo sapiens, UniProt Q9UBT2); experiment: blockers of SAE1/SAE2–UBC9 SUMO transfer – biochemical, HTRF, uHTS, primary screen (AID 2006); format: protein-complex assay
Genome polyprotein = Genome polyprotein (dengue virus type 2, UniProt P29990); experiment: flavivirus cap methylation enzyme inhibition – biochemical, confirmation dose response, primary screen (AID 588689); format: functional
[11] = target: Transitional endoplasmic reticulum ATPase (Homo sapiens, UniProt P55072); experiment: p97 ATPase inhibitors, dose response, biochemical (AID 1534)
[12] = target: T2, Voltage-gated N-type calcium channel alpha-1B subunit/Amyloid beta A4 precursor protein-binding family A member 1 (Homo sapiens, UniProt Q00975+Q02410); format: protein assay
[13] = target: Induced myeloid leukemia cell differentiation protein Mcl-1 (Homo sapiens, UniProt Q07820); format: functional
[14] = target: T2, Voltage-gated N-type calcium channel alpha-1B subunit/Amyloid beta A4 precursor protein-binding family A member 1; format: protein assay; remark: listed apart in the source
SUMO E1/E2 = SUMO E1/E2 (Homo sapiens, UniProt P63279+Q9UBE0+Q9UBT2); experiment: SAR analysis of SUMOylation using HTRF in an in-Vitro dose response assay. [Related pubchem assays (depositor defined):AID2006, AID2011, AID2018, AID2069, AID2658]; format: functional
Caspase-6 = target: T3, Caspase-6 (Homo sapiens, UniProt P55212); experiment: inhibition of CASP6 peptide cleavage – biochemical, VEID-R110 fluorescence, cherry-pick, dose response (AID 720632)
T3 sequence (P55212 whole entry): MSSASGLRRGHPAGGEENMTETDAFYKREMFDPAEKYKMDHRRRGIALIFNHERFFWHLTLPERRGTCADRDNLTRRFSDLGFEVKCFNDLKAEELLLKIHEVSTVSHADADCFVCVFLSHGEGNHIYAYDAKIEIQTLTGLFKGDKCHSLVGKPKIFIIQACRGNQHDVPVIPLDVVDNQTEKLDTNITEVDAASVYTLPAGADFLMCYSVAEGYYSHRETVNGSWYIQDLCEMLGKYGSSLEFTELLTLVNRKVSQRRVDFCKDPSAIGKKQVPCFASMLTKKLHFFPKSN

[15] = target: T4, Histone-lysine N-methyltransferase NSD2 (Homo sapiens, UniProt O96028); format: biochemical
T4 sequence (O96028 whole entry): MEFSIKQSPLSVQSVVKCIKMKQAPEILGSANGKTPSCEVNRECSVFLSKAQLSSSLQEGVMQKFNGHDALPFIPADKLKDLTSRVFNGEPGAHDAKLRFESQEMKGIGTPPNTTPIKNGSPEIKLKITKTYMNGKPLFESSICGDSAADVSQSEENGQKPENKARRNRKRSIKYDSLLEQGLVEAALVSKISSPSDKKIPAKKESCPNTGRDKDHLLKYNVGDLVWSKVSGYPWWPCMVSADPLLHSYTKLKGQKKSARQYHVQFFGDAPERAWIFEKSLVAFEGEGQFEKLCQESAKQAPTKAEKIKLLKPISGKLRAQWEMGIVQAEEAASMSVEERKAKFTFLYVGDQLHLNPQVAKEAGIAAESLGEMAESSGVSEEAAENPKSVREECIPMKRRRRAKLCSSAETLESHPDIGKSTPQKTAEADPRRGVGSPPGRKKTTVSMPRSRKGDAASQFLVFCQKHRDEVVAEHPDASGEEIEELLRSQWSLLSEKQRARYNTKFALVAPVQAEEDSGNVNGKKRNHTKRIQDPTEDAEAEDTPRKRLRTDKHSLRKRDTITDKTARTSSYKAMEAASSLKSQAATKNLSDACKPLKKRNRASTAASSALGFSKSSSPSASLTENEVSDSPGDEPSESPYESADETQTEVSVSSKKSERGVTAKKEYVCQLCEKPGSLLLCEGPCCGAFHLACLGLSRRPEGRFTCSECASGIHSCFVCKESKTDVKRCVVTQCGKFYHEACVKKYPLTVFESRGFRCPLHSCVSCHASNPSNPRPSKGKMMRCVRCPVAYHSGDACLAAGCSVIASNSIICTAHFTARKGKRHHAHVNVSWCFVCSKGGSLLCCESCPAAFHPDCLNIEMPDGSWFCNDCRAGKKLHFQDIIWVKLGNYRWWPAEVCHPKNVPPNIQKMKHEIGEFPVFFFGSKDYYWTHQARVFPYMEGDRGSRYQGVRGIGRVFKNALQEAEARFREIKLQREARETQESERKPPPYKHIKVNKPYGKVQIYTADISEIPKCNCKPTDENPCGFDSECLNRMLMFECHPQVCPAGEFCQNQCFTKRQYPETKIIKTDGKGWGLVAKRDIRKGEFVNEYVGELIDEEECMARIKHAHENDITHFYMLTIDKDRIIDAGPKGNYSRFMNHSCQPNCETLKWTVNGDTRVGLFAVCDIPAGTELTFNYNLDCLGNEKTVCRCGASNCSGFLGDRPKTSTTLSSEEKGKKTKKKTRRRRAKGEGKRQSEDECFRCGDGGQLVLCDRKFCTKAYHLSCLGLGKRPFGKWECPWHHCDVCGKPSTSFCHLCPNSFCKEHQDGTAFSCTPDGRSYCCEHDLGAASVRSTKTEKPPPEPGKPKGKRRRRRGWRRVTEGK

SUMO-activating enzyme [16] = target: T1, SUMO-activating enzyme; experiment: blockers of UBC9-mediated SUMO conjugation – biochemical, AlphaScreen, SUMOylation inhibitor project, confirmation (AID 2018); format: functional
Aminopeptidase N = target: T5, Aminopeptidase N (Plasmodium falciparum FcB1/Columbia, UniProt O96935); experiment: malaria alanyl aminopeptidase activity blockers – biochemical, fluorogenic H-Leu-NHMec substrate, 1536-well (AID 1445); design: species or system Plasmodium falciparum 3D7, 3D7
T5 sequence (O96935 whole entry): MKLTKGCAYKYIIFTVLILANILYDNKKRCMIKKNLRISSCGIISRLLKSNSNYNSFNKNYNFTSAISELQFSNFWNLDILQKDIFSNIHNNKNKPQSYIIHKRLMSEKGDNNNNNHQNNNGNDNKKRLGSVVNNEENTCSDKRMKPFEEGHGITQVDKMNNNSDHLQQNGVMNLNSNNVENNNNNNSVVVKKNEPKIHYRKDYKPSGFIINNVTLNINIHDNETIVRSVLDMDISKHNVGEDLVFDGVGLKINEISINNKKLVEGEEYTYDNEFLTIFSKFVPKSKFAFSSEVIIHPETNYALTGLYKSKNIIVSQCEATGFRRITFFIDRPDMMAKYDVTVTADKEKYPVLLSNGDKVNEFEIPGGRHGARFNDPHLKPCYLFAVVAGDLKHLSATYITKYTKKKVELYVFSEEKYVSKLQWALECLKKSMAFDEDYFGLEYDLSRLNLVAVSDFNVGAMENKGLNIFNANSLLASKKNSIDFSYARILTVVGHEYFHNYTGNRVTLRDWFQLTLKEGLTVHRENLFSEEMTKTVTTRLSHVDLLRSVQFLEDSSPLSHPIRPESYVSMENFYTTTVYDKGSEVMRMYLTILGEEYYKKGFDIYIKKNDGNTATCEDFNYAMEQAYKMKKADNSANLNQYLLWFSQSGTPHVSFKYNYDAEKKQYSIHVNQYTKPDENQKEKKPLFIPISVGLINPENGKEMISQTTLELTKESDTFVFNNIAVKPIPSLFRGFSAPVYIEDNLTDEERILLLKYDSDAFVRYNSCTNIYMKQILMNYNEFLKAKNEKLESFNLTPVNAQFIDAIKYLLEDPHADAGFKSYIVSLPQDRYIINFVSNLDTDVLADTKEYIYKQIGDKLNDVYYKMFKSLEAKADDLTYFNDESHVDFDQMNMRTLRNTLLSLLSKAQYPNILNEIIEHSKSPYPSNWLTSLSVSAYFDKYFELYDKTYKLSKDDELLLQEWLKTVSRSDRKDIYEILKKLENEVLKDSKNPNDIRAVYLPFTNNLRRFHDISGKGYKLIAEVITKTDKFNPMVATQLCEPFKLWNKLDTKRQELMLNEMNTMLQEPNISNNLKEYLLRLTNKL

T1 sequence (Q9UBE0 whole entry): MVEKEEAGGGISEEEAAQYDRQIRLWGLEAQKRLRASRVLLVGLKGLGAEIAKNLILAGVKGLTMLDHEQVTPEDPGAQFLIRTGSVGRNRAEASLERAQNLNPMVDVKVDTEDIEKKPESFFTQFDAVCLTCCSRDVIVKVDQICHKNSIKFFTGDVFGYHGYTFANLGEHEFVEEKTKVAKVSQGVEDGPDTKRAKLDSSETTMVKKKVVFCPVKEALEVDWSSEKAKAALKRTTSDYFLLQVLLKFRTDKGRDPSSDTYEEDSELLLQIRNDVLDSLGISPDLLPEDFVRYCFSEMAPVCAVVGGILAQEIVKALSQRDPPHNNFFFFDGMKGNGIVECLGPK
T1 sequence (Q9UBT2 whole entry): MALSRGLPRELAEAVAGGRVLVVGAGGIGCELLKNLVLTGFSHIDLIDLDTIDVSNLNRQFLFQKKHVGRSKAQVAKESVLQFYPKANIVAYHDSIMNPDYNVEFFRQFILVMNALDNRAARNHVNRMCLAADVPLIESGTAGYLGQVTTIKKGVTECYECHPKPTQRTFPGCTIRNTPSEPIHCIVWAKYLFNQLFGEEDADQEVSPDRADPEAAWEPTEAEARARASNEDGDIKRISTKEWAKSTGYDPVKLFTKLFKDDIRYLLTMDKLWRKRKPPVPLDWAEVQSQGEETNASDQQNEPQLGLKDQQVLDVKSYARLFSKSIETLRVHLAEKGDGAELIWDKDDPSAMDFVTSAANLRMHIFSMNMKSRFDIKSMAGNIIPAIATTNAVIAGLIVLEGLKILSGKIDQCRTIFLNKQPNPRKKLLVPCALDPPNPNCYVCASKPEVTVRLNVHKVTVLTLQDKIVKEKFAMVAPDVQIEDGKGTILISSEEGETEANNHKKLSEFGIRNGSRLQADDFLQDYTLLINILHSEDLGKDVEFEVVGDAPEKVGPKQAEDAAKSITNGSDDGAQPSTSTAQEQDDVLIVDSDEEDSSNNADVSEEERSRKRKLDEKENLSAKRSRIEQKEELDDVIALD
ORF 73, sequence (O40947 whole entry): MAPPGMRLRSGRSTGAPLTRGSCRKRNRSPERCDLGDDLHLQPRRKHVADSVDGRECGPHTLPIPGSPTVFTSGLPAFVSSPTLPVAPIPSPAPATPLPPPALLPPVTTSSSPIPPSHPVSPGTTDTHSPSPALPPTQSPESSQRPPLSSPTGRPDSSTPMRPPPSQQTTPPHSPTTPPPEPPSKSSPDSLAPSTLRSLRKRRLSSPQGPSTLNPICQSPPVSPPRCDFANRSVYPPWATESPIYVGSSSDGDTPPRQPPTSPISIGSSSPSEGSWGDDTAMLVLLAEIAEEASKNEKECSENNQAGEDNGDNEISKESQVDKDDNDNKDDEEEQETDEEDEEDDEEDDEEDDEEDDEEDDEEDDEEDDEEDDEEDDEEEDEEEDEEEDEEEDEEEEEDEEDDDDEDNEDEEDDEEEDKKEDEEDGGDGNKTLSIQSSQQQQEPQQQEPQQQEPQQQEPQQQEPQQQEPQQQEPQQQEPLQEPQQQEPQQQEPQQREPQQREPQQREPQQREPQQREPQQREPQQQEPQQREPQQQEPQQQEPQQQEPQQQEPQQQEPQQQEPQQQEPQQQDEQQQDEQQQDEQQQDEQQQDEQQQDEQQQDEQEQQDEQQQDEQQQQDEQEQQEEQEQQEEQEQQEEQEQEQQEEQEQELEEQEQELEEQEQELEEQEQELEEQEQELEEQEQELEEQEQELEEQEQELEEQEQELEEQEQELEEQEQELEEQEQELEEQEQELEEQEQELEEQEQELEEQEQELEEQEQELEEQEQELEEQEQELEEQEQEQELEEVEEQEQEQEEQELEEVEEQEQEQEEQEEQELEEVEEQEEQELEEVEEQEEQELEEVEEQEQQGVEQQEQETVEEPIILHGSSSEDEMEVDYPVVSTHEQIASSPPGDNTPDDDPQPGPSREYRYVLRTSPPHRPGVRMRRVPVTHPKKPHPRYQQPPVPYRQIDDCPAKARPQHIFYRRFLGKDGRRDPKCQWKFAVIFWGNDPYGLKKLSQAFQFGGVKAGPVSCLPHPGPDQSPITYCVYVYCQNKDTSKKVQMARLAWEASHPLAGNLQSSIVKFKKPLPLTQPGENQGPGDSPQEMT
Keap1/Nrf2, sequence (Q16236 whole entry): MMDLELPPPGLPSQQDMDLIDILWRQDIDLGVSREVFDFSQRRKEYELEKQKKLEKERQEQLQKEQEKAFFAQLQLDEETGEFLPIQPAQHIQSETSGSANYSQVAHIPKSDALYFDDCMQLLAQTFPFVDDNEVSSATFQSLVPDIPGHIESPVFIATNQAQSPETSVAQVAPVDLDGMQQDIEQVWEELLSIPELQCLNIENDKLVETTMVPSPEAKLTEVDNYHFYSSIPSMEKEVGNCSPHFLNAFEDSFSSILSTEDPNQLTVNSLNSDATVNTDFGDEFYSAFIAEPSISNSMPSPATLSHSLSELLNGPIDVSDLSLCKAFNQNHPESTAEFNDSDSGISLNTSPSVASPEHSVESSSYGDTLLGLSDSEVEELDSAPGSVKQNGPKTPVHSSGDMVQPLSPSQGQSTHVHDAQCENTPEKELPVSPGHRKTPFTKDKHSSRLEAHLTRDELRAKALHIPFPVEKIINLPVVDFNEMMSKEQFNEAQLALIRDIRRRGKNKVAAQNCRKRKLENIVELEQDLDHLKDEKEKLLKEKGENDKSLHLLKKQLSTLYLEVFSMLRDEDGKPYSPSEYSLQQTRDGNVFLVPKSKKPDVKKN
Keap1/Nrf2, sequence (Q14145 whole entry): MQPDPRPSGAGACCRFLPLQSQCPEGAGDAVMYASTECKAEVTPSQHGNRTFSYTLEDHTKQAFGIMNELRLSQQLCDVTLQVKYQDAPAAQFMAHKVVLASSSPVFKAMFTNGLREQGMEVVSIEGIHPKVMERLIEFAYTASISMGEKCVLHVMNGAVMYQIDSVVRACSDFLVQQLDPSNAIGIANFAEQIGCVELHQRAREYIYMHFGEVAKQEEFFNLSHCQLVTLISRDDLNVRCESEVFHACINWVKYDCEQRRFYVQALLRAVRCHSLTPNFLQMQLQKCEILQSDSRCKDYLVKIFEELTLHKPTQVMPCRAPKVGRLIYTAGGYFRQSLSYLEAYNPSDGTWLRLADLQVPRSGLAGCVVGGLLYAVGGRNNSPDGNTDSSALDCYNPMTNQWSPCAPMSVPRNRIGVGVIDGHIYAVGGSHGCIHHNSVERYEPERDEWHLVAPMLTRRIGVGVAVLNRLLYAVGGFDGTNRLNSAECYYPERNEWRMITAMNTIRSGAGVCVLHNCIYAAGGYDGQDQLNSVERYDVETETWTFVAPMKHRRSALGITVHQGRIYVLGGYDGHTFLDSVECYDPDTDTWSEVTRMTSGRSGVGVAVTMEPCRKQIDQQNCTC
CAAX prenyl protease 1, sequence (P47154 whole entry): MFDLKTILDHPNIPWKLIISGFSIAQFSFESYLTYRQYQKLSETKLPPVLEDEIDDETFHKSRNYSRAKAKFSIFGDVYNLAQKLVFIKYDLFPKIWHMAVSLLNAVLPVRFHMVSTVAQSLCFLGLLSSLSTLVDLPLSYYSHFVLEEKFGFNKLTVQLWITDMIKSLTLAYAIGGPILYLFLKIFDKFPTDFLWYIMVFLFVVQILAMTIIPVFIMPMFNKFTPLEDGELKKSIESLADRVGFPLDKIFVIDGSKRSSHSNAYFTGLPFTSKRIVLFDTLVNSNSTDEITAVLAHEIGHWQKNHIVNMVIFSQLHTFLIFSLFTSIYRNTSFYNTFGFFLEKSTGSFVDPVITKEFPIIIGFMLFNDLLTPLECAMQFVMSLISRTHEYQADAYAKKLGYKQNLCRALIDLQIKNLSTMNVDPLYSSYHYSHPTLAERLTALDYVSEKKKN
Induced myeloid leukemia cell differentiation protein Mcl-1, sequence (Q07820 whole entry): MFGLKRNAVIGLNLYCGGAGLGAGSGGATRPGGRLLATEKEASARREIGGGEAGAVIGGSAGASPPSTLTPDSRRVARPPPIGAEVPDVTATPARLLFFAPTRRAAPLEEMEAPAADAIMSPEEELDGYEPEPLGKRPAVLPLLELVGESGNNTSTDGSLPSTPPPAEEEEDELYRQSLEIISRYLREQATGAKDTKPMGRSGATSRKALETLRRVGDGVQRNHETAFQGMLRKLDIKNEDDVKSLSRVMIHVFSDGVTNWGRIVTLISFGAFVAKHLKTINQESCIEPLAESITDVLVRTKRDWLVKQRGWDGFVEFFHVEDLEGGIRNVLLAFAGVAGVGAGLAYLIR
Transitional endoplasmic reticulum ATPase (Homo sapiens, UniProt P55072, C522A), sequence (P55072 2-806 C522A limits assumed): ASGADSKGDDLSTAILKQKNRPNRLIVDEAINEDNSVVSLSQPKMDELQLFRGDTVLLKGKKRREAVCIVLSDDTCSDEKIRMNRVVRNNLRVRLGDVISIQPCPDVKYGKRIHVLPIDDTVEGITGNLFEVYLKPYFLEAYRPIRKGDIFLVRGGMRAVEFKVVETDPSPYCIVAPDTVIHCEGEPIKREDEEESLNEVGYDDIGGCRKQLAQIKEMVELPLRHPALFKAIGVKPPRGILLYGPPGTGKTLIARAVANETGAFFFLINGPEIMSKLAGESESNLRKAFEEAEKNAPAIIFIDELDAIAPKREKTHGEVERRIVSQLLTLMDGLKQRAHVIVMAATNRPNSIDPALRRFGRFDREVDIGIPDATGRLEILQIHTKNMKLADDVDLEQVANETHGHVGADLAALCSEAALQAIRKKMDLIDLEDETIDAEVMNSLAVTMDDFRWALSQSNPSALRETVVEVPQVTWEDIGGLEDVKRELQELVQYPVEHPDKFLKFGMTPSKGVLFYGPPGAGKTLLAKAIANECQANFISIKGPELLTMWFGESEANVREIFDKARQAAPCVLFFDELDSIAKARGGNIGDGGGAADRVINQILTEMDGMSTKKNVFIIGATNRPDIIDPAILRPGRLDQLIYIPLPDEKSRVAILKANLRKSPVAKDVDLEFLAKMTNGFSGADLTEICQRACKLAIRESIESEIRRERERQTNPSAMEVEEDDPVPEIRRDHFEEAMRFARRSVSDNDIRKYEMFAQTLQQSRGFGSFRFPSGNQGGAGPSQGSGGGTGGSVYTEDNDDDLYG

In the case of `COc1ccc(-n2c(N)c(C(=O)NCc3ccco3)c3nc4ccccc4nc32)c(OC)c1`, the AC50 (Trypsin) is reported as 2.87 µM (active), the AC50 (CAAX prenyl protease 1) is reported as 5.18 µM (active) and the AC50 (CAAX prenyl protease 2) is reported as 2.3 µM (active).
For `O=[N+]([O-])c1ccc(O)c(-c2nn[nH]n2)c1`, the IC50 [1] was 44.5 µM (not active), the AC50 [2] was 121 µM (active) and the IC50 [3] was > 67 µM (not active). For the same compound, the AC50 [4] was 4.74 µM (active).
In the case of `Nc1cccc(N2C(=O)c3cccc4c(N)ccc(c34)C2=O)c1`, the AC50 (ORF 73) is reported as 6.98 µM (active), the IC50 (Beta-lactamase [5]) is reported as 16.8 µM (inactive) and the IC50 (Beta-lactamase [6]) is reported as 31 µM (inactive). For the same compound, the AC50 (Keap1/Nrf2) was 4.29 µM (active) and the AC50 [7] was 3.13 µM (active).
For `O=C(O)c1ccc(NS(=O)(=O)c2ccc3c(c2)C2C=CCC2C(c2ccccc2F)N3)cc1` (stereo unspecified), the IC50 [8] was 10.1 µM (active), the IC50 [9] was > 50 µM (not active) and the IC50 (SUMO-activating enzyme [10]) was 19.5 µM (active). For the same compound, the AC50 (ORF 73) was 109 µM (active), the IC50 (Genome polyprotein) was 62.3 µM (active) and the IC50 [11] was 19 µM (not active). The IC50 [12] was > 50 µM (inactive), the IC50 [13] was 2.58 µM (active) and the IC50 [14] was > 56.8 µM (not active). For the same compound, the IC50 (SUMO E1/E2) was 35.3 µM (active), the AC50 (Caspase-6) was 13.7 µM (active) and the AC50 [15] was 10.2 µM (active). For the same compound, the IC50 (SUMO-activating enzyme [16]) was 4.63 µM (active) and the IC50 (Aminopeptidase N) was 2.75 µM (active).
